Tests used:
[1] = system: KG-1 cells; experiment: Antiproliferative activity against KG-1 cells (CCK8); assay type: cell-based; settings: 72 hours
Description: KG-1 cells in the logarithmic growth phase were diluted in a culture medium (RPMI + 10% FBS) and plated onto 96-well plates at 5000 cells/well, and the plates were incubated in an incubator at 37 °C with 5% CO2 for 24 hours. 10 mM stock solutions of the test compounds of the present disclosure in DMSO were prepared and diluted with the culture medium to set 9 concentration gradients. Three replicate wells were set for each concentration. After compound addition, the plates were incubated in an incubator at 37 °C with 5% CO2 for 72 hours. The cell proliferation was assessed using the CCK8 method. The cell growth inhibition IC50 values of the compounds were determined using an enzyme labeling method. The IC50 values were calculated using GraphPad Prism 7 software.
The antiproliferative activity of the compounds against KG-1 cells is shown in Table 2, where A represents IC50 < 1 nM, B represents 1 ≤ IC50 < 10 nM, C represents 10 nM ≤ IC50 < 100 nM, D represents 100 nM ≤ IC50 < 1000 nM, and E represents IC50 ≥ 1000 nM. Table 2. The antiproliferative activity of compounds against KG-1 cells

[2] = biological target: T1, GSPT1 protein (Homo sapiens, UniProt P15170+Q96SW2); experiment: Degradation of GSPT1 in KG-1 cells (Western blot); assay type: cell-based; parameters: percent GSPT1 degradation: dose or concentration left out as unconfirmed
T1 construct: host or cells: KG-1 cells
Description: KG-1 cells (ATCC) were grown in an IMDM culture medium (containing 20% FBS). After centrifugation and counting, the cell concentration was adjusted. The cells were plated onto 6-well plates at 10^6 cells/well, with 1350 µL per well. 150 µL of DMSO and the test compounds of the present disclosure (compound concentration: 200 nM) were added. The plates were incubated in an incubator at 37 °C with 5% CO2 for 4 hours. The cells were centrifuged, and the culture medium was discarded. PBS was added to wash the cells and then discarded. Whole cell lysates were prepared using a protease inhibitor cocktail (100×, Fude Biological), a protein phosphatase inhibitor cocktail (100×, Fude Biological), SuperNuclease (Beyotime), and a high-intensity RIPA lysis buffer (Thermo Fisher) and placed on ice for 30 minutes. After centrifugation, the cell debris precipitates were discarded, and the whole cell lysate supernatants were collected and transferred to new centrifuge tubes. After a BCA protein assay, samples were prepared using a 5× loading buffer (Thermo Fisher). The samples were subjected to protein electrophoresis separation in a 4-20% precast gel (SDS-PAGE gel), transferred to a PVDF membrane, then blocked with 5% NFDM/TBST at room temperature for 1 hour, incubated overnight with primary antibodies at 4 °C, and incubated with a secondary antibody at room temperature for 2 hours the next day. Signals were detected using a MINICHEMITM imaging system.
Primary antibodies: • Anti-GSPT1: Abcam ab234433 • Anti-beta actin: Fude Biological FD0060
Secondary antibody: Anti-rabbit peroxidase-linked secondary antibody: Fude Biological FDG007
The degradation effects of the compounds on GSPT1 protein are shown in Table 1, where A represents a GSPT1 protein degradation percentage of no less than 80%, B represents a degradation percentage of less than 80% but no less than 50%, C represents a degradation percentage of less than 50% but no less than 25%, and D represents a degradation percentage of less than 25%. Table 1. The degradation of GSPT1 protein by compounds

[3] = KG-1 cells, compound concentration 200 nM, 4 hours

T1 sequence (P15170 whole entry): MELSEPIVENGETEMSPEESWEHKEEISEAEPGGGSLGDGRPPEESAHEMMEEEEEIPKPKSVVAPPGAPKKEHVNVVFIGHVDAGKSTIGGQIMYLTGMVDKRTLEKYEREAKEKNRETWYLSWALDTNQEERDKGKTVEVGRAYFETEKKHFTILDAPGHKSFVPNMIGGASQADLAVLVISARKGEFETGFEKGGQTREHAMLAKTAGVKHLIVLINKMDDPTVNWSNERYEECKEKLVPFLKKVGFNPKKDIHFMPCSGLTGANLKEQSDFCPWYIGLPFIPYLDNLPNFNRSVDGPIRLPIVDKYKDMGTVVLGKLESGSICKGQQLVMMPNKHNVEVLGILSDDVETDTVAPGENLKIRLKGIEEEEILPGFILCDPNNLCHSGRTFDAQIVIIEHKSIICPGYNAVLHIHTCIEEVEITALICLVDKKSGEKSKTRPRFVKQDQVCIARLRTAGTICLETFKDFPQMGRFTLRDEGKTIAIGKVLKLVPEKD
T1 sequence (Q96SW2 whole entry): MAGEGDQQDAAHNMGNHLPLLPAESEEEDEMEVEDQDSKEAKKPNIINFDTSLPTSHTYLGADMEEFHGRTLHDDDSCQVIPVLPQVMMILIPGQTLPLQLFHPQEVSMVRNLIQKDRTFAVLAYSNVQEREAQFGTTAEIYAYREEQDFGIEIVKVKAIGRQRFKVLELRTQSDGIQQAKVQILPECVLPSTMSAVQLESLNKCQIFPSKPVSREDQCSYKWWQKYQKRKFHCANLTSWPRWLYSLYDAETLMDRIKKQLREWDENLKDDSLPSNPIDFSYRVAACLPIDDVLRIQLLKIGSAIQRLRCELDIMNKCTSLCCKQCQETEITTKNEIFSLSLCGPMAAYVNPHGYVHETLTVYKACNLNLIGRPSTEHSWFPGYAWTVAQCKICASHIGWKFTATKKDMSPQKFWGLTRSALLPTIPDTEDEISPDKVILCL
T1 sequence (Q16531 whole entry partner): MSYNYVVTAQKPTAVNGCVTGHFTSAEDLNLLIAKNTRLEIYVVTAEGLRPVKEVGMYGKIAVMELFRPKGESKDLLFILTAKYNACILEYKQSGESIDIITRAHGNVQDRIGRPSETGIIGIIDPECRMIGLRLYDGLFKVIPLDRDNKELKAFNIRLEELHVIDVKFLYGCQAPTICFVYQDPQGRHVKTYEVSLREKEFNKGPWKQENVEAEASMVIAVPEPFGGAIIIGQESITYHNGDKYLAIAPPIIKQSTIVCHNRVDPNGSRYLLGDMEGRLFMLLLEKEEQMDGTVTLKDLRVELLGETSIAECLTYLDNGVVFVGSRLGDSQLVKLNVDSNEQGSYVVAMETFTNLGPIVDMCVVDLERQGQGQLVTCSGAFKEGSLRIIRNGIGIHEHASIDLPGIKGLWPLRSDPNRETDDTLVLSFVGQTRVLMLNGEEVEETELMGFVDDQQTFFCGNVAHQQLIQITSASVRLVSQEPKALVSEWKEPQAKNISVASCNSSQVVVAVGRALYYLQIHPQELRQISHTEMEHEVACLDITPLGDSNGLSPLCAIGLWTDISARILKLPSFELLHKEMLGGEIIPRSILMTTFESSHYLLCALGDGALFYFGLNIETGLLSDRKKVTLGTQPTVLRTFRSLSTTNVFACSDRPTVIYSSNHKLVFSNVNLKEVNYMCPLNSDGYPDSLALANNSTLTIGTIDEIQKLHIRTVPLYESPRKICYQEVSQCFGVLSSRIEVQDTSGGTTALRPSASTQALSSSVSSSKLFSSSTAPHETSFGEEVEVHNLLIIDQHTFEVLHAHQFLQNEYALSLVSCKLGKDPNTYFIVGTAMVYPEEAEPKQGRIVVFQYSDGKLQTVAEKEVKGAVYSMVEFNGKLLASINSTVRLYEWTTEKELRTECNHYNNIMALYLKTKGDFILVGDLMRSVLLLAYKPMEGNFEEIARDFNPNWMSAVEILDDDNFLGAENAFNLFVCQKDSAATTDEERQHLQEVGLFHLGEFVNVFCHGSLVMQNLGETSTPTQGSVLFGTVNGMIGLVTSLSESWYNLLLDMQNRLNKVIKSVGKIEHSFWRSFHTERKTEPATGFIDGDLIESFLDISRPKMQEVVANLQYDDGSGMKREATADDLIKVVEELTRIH

Row | percent GSPT1 degradation at 0.2 µM [2, 3] [%] | SMILES | IC50 ([1]; Homo sapiens) [nM] | IC50 [1] [nM] | GSPT1 degradation [2, 3] | percent GSPT1 degradation ([2]; KG-1, 4 h, read-out: GSPT1 degradation) [%]
1 | > 80 | Cc1cccc2c1C=C(C(=O)NCc1ccc3c(c1)CN(C1CCC(=O)NC1=O)C3=O)CO2 (stereo not drawn) [Compound A-22, N-((2-(2,6-Dioxopiperidin-3-yl)-1-oxoisoindolin-5-yl)methyl)-5-methyl-2H-chromene-3-carboxamide] | 1 to 10 | – | – | –
2 | > 80 | Cc1cc2c(cc1Cl)OCC(C(=O)NCc1ccc3c(c1)CN(C1CCC(=O)NC1=O)C3=O)=C2 (stereo not drawn) [Compound A-29, N-((2-(2,6-Dioxopiperidin-3-yl)-1-oxoisoindolin-5-yl)methyl)-7-chloro-6-methyl-2H-chromene-3-carboxamide] | 10 to 100 | – | – | –
3 | 25 to 50 | C=CC(=O)Nc1ccc2c(c1)C=C(C(=O)NCc1ccc3c(c1)CN(C1CCC(=O)NC1=O)C3=O)CO2 (stereo not drawn) [Compound A-24, N-((2-(2,6-Dioxopiperidin-3-yl)-1-oxoisoindolin-5-yl)methyl)-6-(acrylamido)-2H-chromene-3-carboxamide] | ≥ 1000 | – | – | –
4 | > 80 | O=C1CCC(N2Cc3cc(CNC(=O)C4=Cc5cccc(OC(F)(F)F)c5OC4)ccc3C2=O)C(=O)N1 (stereo not drawn) [Compound A-19, N-((2-(2,6-Dioxopiperidin-3-yl)-1-oxoisoindolin-5-yl)methyl)-8-trifluoromethoxy-2H-chromene-3-carboxamide] | 1 to 10 | – | – | –
5 | 50 to 80 | COc1ccc2c(c1)C=C(C(=O)NCc1ccc3c(c1)CN(C1CCC(=O)NC1=O)C3=O)CO2 (stereo not drawn) [Compound A-8, N-((2-(2,6-Dioxopiperidin-3-yl)-1-oxoisoindolin-5-yl)methyl)-6-methoxy-2H-chromene-3-carboxamide] | 10 to 100 | – | – | –
6 | > 80 | O=C1CCC(N2Cc3cc(CNC(=O)C4=Cc5cccc(F)c5OC4)ccc3C2=O)C(=O)N1 (stereo not drawn) [Compound A-5, N-((2-(2,6-Dioxopiperidin-3-yl)-1-oxoisoindolin-5-yl)methyl)-8-fluoro-2H-chromene-3-carboxamide] | 1 to 10 | – | – | –
7 | > 80 | O=C1CCC(N2Cc3cc(CNC(=O)C4COc5ccc(F)cc5C4)ccc3C2=O)C(=O)N1 (stereo not drawn) [Compound B-2, N-((2-(2,6-Dioxopiperidin-3-yl)-1-oxoisoindolin-5-yl)methyl)-6-fluorochromane-3-carboxamide] | 1 to 10 | – | – | –
8 | > 80 | O=C1CCC(N2Cc3c(ccc(CNC(=O)C4=Cc5cccc(OC(F)(F)F)c5OC4)c3F)C2=O)C(=O)N1 (stereo not drawn) [Compound A-43, N-((2-(2,6-Dioxopiperidin-3-yl)-4-fluoro-1-oxoisoindolin-5-yl)methyl)-8-(trifluoromethoxy)-2H-chromene-3-carboxamide] | 1 to 10 | – | – | –

More lines, now with the values behind:

Row | SMILES | percent GSPT1 degradation at 0.2 µM [2, 3] [%] | IC50 ([1]; Homo sapiens) [nM] | IC50 [1] [nM] | GSPT1 degradation [2, 3] | percent GSPT1 degradation ([2]; KG-1, 4 h, read-out: GSPT1 degradation) [%]
9 | O=C1CCC(N2Cc3cc(CNC(=O)C4=Cc5cccc(C(F)(F)F)c5OC4)ccc3C2=O)C(=O)N1 (stereo not drawn) [Compound A-18, N-((2-(2,6-Dioxopiperidin-3-yl)-1-oxoisoindolin-5-yl)methyl)-8-trifluoromethyl-2H-chromene-3-carboxamide] | > 80 | < 1 | – | – | –
10 | O=C1CCC(N2Cc3cc(CNC(=O)C4=Cc5cc(NC(=O)CO)ccc5OC4)ccc3C2=O)C(=O)N1 (stereo not drawn) [Compound A-25, N-((2-(2,6-Dioxopiperidin-3-yl)-1-oxoisoindolin-5-yl)methyl)-6-(2-hydroxyacetamido)-2H-chromene-3-carboxamide] | 25 to 50 | ≥ 1000 | – | – | –
11 | O=C1CCC(N2Cc3ccc(CNC(=O)C4=Cc5cc(OC(F)(F)F)ccc5OC4)cc3C2=O)C(=O)N1 (stereo not drawn) [Compound A-40, N-((2-(2,6-Dioxopiperidin-3-yl)-3-oxoisoindolin-5-yl)methyl)-6-(trifluoromethoxy)-2H-chromene-3-carboxamide] | 50 to 80 | 10 to 100 | – | – | –
12 | Cc1cc2c(cc1C)OCC(C(=O)NCc1ccc3c(c1)CN(C1CCC(=O)NC1=O)C3=O)=C2 (stereo not drawn) [Compound A-37, N-((2-(2,6-Dioxopiperidin-3-yl)-1-oxoisoindolin-5-yl)methyl)-6,7-dimethyl-2H-chromene-3-carboxamide] | > 80 | 10 to 100 | – | – | –
13 | O=C1CCC(N2Cc3cc(CNC(=O)C4=Cc5c(F)ccc(F)c5OC4)ccc3C2=O)C(=O)N1 (stereo not drawn) [Compound A-36, N-((2-(2,6-Dioxopiperidin-3-yl)-1-oxoisoindolin-5-yl)methyl)-5,8-difluoro-2H-chromene-3-carboxamide] | > 80 | 1 to 10 | – | – | –
14 | O=C1CCC(N2Cc3cc(CNC(=O)C4=Cc5cc(NC(=O)C6CC6)ccc5OC4)ccc3C2=O)C(=O)N1 (stereo not drawn) [Compound A-26, N-((2-(2,6-Dioxopiperidin-3-yl)-1-oxoisoindolin-5-yl)methyl)-6-(cyclopropanecarboxamido)-2H-chromene-3-carboxamide] | < 25 | 100 to 1000 | – | – | –
15 | Cc1cc2c(cc1Cl)C=C(C(=O)NCc1ccc3c(c1)CN(C1CCC(=O)NC1=O)C3=O)CO2 (stereo not drawn) [Compound A-28] | – | – | 10 to 100 | A (a GSPT1 protein degradation percentage of no less than 80%) | –
16 | O=C1CCC(N2Cc3cc(CNC(=O)C4=Cc5cc(-c6ccccc6)ccc5OC4)ccc3C2=O)C(=O)N1 (stereo not drawn) [Compound A-17, N-((2-(2,6-Dioxopiperidin-3-yl)-1-oxoisoindolin-5-yl)methyl)-6-phenyl-2H-chromene-3-carboxamide] | 50 to 80 | 100 to 1000 | – | – | –
17 | Cc1cccc2c1OCC(C(=O)NCc1ccc3c(c1)CN(C1CCC(=O)NC1=O)C3=O)=C2 (stereo not drawn) [Compound A-21, N-((2-(2,6-Dioxopiperidin-3-yl)-1-oxoisoindolin-5-yl)methyl)-8-methyl-2H-chromene-3-carboxamide] | > 80 | 1 to 10 | – | – | –
18 | O=C1CCC(N2Cc3cccc(CNC(=O)C4=Cc5cc(OC(F)(F)F)ccc5OC4)c3C2=O)C(=O)N1 (stereo not drawn) [Compound A-39, N-((2-(2,6-Dioxopiperidin-3-yl)-3-oxoisoindolin-4-yl)methyl)-6-(trifluoromethoxy)-2H-chromene-3-carboxamide] | 50 to 80 | 10 to 100 | – | – | –
19 | O=C1CCC(N2Cc3cc(CNC(=O)C4=Cc5cc(Cl)ccc5OC4)ccc3C2=O)C(=O)N1 (stereo not drawn) [Compound A-6, N-((2-(2,6-Dioxopiperidin-3-yl)-1-oxoisoindolin-5-yl)methyl)-6-chloro-2H-chromene-3-carboxamide] | – | 10 to 100 | – | – | > 80
20 | O=C1CCC(N2Cc3cc(CNC(=O)C4=Cc5ccc(F)cc5OC4)ccc3C2=O)C(=O)N1 (stereo not drawn) [Compound A-4, N-((2-(2,6-Dioxopiperidin-3-yl)-1-oxoisoindolin-5-yl)methyl)-7-fluoro-2H-chromene-3-carboxamide] | 50 to 80 | 10 to 100 | – | – | –
21 | CC(=O)Nc1ccc2c(c1)C=C(C(=O)NCc1ccc3c(c1)CN(C1CCC(=O)NC1=O)C3=O)CO2 (stereo not drawn) [Compound A-23, N-((2-(2,6-Dioxopiperidin-3-yl)-1-oxoisoindolin-5-yl)methyl)-6-(acetamido)-2H-chromene-3-carboxamide] | 25 to 50 | ≥ 1000 | – | – | –
22 | O=C1CCC(N2Cc3cc(CNC(=O)C4=Cc5ccc(F)c(F)c5OC4)ccc3C2=O)C(=O)N1 (stereo not drawn) [Compound A-32, N-((2-(2,6-Dioxopiperidin-3-yl)-1-oxoisoindolin-5-yl)methyl)-7,8-difluoro-2H-chromene-3-carboxamide] | > 80 | 1 to 10 | – | – | –
23 | O=C1CCC(N2Cc3cc(CNC(=O)C4COc5ccc(Cl)cc5C4)ccc3C2=O)C(=O)N1 (stereo not drawn) [Compound B-3, N-((2-(2,6-Dioxopiperidin-3-yl)-1-oxoisoindolin-5-yl)methyl)-6-chlorochromane-3-carboxamide] | > 80 | 1 to 10 | – | – | –
24 | Nc1ccc2c(c1)C=C(C(=O)NCc1ccc3c(c1)CN(C1CCC(=O)NC1=O)C3=O)CO2 (stereo not drawn) [Compound A-12, N-((2-(2,6-Dioxopiperidin-3-yl)-1-oxoisoindolin-5-yl)methyl)-6-amino-2H-chromene-3-carboxamide] | > 80 | 10 to 100 | – | – | –
